Measured values from US12187720B2, “Compounds for treatment of cancer” (ONCTERNAL THERAPEUTICS, INC., priority 2010, dated 2025).
Converted amounts (≈) assume the structure as drawn. Where a name gives a salt, the structure may show the parent alone. Read-outs that look alike come from different tables or passages of the source.

Tests used:
LNCaP = assay: SRB cytotoxicity assay, LNCaP prostate cancer cells; assay type: cell-based, human; conditions: Homo sapiens, LNCaP
Excerpt: (§1) Cells were stained with SRB solution.

DU145/TXR = assay: SRB growth inhibition, paclitaxel-resistant DU145/TXR cells; assay type: cell-based; conditions: Homo sapiens, DU-145; Table 13A; read-out: inhibitory effects DU145/TXR
A375 = assay: SRB cytotoxicity assay, A375 human melanoma cells; assay type: cell-based; conditions: read-out: IC50 ± SEM A375
WM-164 = assay: SRB cytotoxicity assay, WM-164 human melanoma cells; assay type: cell-based; conditions: Homo sapiens
[1] = tested on: melanoma and prostate cancer cell lines; assay: SRB cytotoxicity, summary or average over melanoma and prostate cancer cell lines; assay type: cell-based; conditions: for IC50: average of all seven cell lines
[2] = Metabolic stability in human liver microsomes; conditions: for half-life at 0.5 μM: human, liver microsomes, pH 7.4
DU 145 = assay: SRB cytotoxicity assay, DU 145 prostate cancer cells; assay type: cell-based; conditions: Homo sapiens
Excerpt: as §1

PC-3 = assay: SRB cytotoxicity assay, PC-3 prostate cancer cells; assay type: cell-based, human; conditions: Homo sapiens, PC-3
Excerpt: as §1

PPC-1 = assay: SRB cytotoxicity assay, PPC-1 prostate cancer cells; assay type: cell-based, human; conditions: Homo sapiens, PPC-1
Excerpt: as §1

[3] = Pharmacokinetic study in Sprague-Dawley rats; conditions: for CL (systemic clearance) / Vss (volume of distribution following intravenous dosing): IV, […] (1h, 2r), 5 mg/kg (5Ha, 5Hc); for F (percent oral bioavailability), rat: rats, PO versus IV
[4] = Metabolic stability in mouse liver microsomes; assay type: in vitro ADME; conditions: mouse, liver microsomes, pH 7.4, Table 20; read-out: Half life in Mouse liver microsome
[5] = Metabolic stability in rat liver microsomes; assay type: in vitro ADME; conditions: rat, liver microsomes, pH 7.4; Table 20; read-out: Half life in Rat liver microsome
[6] = Metabolic stability in dog liver microsomes; assay type: in vitro ADME; conditions: dog, dog liver microsomes, pH 7.4; Table 20; read-out: Half life in Dog liver microsome
in vivo [7] = conditions: female, Sprague-Dawley, rat, plasma
in vivo [8] = conditions: male, ICR, mouse, plasma, po, 20 mg/kg
[9] = Aqueous solubility, Multiscreen Solubility Filter Plate with LC-MS/MS (PBS pH 7.4); assay type: physicochemical; conditions: for aqueous solubility: PBS pH 7.4
MDA-MB-435/LCCMDR1 = assay: SRB cytotoxicity assay, multidrug-resistant MDA-MB-435/LCCMDR1 melanoma cells; assay type: cell-based, human
[10] = Table 13A, read-out: inhibitory effects LNCaP
[11] = Table 13B, read-out: inhibitory effects DU145
[12] = Table 13B, read-out: inhibitory effects PC3
[13] = Table 13B, read-out: inhibitory effects LNCaP
[14] = Table 13B, read-out: inhibitory effects PPC1
[15] = Table 13A, read-out: inhibitory effects DU145
[16] = Table 13A, read-out: inhibitory effects PC3
[17] = Table 13A, read-out: inhibitory effects PPC1

For COc1cc(C(=O)c2nc(-c3ccc(C)cc3)c[nH]2)cc(OC)c1OC [70f, (4-p-tolyl-1H-imidazol-2-yl)(3,4,5-trimethoxyphenyl)methanone], the IC50 (LNCaP; [10]) was 13 nM and the IC50 (DU145/TXR) was 21 nM.

Work on CN(C)c1ccc(-c2nc(C(=O)c3ccc(F)cc3)c[nH]2)cc1 [12gb, (2-(4-(dimethylamino)phenyl)-1H-imidazol-4-yl)(4-fluorophenyl)methanone] yielded an IC50 (A375; Homo sapiens, A-375, 48 h, Table 12, 48 h) of 0.056 ± 0.007 µM and an IC50 (WM-164; WM164, 48 h, Table 12, 48 h, read-out: IC50 ± SEM WM164 (converted)) of 62 ± 8 nM.

With COc1cc(/C(=N/O)c2csc(-c3ccccc3)n2)cc(OC)c1OC [2e-cis, (Z)-(2-Phenylthiazol-4-yl)(3,4,5-trimethoxyphenyl)methanone oxime] the “fold more activity than the comparator” value ([1]; 2e-cis vs 2e-trans, 12jb vs 12kb) was 10 fold and the “half life in human liver microsome” value [2] was 35 min.

O=C(c1ccc(F)cc1)c1c[nH]c(-c2ccc(O)cc2)n1 [12kb] gave an IC50 (A375; Table 12, 48 h) of 10 µM.

For COc1ccc(C(=O)c2nc(-c3ccc(OC)cc3)c[nH]2)cc1 [70w, (4-methoxyphenyl)(4-(4-methoxyphenyl)-1H-imidazol-2-yl)methanone], the IC50 (DU 145; [11]) was 9.39 µM, the IC50 (PC-3; [12]) was 23400 nM and the IC50 (LNCaP; [13]) was 6410 nM. The IC50 (PPC-1; [14]) was 38200 nM.

With COc1cc(C(=O)c2csc(Nc3ccccc3)n2)cc(OC)c1OC.Cl [5Ha, (2-(phenylamino)thiazol-4-yl)(3,4,5-trimethoxyphenyl)methanone hydrochloride salt] the “CL (systemic clearance)” value [3] was 17 ± 3 mL/min/kg, the “Vss (volume of distribution following intravenous dosing)” value [3] was 1.4 ± 0.2 L/kg and the “F (percent oral bioavailability), rat” value [3] was 11%.

Compound COc1cc(C(=O)c2c[nH]c(-c3ccc(Cl)cc3)n2)cc(OC)c1OC [12fa, (2-(4-chlorophenyl)-1H-imidazol-4-yl)(3,4,5-trimethoxyphenyl)methanone] has an IC50 [1] of 43 nM, a half-life at 0.5 μM [4] of 23 min and a half-life at 0.5 μM [5] of 46 min. For the same compound, the half-life at 0.5 μM [6] was 26 min, the bioavailability (in vivo [7]; oral) was 35% and the bioavailability (in vivo [7]; po, 10 mg/kg) was 35%. The bioavailability (in vivo [8]) was 62% and the half-life at 0.5 μM [2] was 56 min.

For COc1cc(C(=O)c2csc(Nc3ccccc3)n2)cc(OC)c1OC [5a, (2-(phenylamino)thiazol-4-yl)(3,4,5-trimethoxyphenyl)methanone], the aqueous solubility [9] was 15 µg/mL (≈ 40.5 µM).

COc1cc(C(=O)c2nc(-c3ccc(O)cc3)c[nH]2)cc(OC)c1OC [70i, (4-(4-hydroxyphenyl)-1H-imidazol-2-yl)(3,4,5-trimethoxyphenyl)methanone] showed an IC50 (DU 145; [15]) of 0.518 µM, an IC50 (PC-3; [16]) of 155 nM and an IC50 (LNCaP; [10]) of 219 nM. It also gave an IC50 (PPC-1; [17]) of 122 nM.

O=C(c1ccc(Cl)cc1)c1nc(-c2ccc(Cl)cc2)c[nH]1 [70s, (4-chlorophenyl)(4-(4-chlorophenyl)-1H-imidazol-2-yl)methanone] showed an IC50 (DU 145; [11]) of over 50 µM, an IC50 (PC-3; [12]) of over 50000 nM and an IC50 (LNCaP; [13]) of over 50000 nM. It also gave an IC50 (PPC-1; [14]) of over 50000 nM.

For COc1cc(Cc2nc(-c3ccccc3)c(C)[nH]2)cc(OC)c1OC [102b, 5-methyl-4-phenyl-2-(3,4,5-trimethoxybenzyl)-1H-imidazole], the IC50 (A375; Homo sapiens, A-375, Table 14C) was over 50 µM.

Compound O=C(c1ccc(F)cc1)c1nc(-c2ccc(F)cc2)c[nH]1 [70r, (4-fluorophenyl)(4-(4-fluorophenyl)-1H-imidazol-2-yl)methanone] has an IC50 (DU 145; [11]) of over 50 µM, an IC50 (PC-3; [12]) of over 50000 nM and an IC50 (LNCaP; [13]) of over 50000 nM. The IC50 (PPC-1; [14]) was over 50000 nM.

With COc1cc(C(=O)c2nc(-c3ccc(N(C)C)cc3)c[nH]2)cc(OC)c1OC [70h, (4-(4-(dimethylamino)phenyl)-1H-imidazol-2-yl)(3,4,5-trimethoxyphenyl)methanone] the IC50 (DU 145; [15]) was 0.263 µM, the IC50 (PC-3; [16]) was 117 nM and the IC50 (LNCaP; [10]) was 96 nM. It also gave an IC50 (PPC-1; [17]) of 120 nM.

Compound COc1ccc(C(=O)n2ccnc2-c2ccc(F)cc2)cc1 [compound 24] has an IC50 (DU 145; Table 6A, read-out: IC50 DU 145) of over 10 µM, an IC50 (PC-3; Table 6A, read-out: IC50 PC-3) of over 10000 nM and an IC50 (LNCaP; Table 6A, read-out: IC50 LNCaP) of over 10000 nM. For the same compound, the IC50 (PPC-1; Table 6A, read-out: IC50 PPC-1) was over 10000 nM.

Compound COc1cc(-c2csc(-c3ccccc3)n2)cc(OC)c1OC [2i, 2-Phenyl-4-(3,4,5-trimethoxyphenyl)thiazole] has a half-life at 0.5 μM [2] of 32 min.

With “5-Phenyl-2-(3,4,5-trimethoxybenzyl)-1H-imidazole and 4-phenyl-2-(3,4,5-trimethoxybenzyl)-1H-imidazole [102a]” the IC50 (A375; Table 14C) was 10.2 ± 0.392 µM.

Compound COc1ccc(-c2nc(C(=O)c3ccc(F)cc3)cn2S(=O)(=O)c2ccccc2)cc1 [11cb, (4-fluorophenyl)(2-(4-methoxyphenyl)-1-(phenylsulfonyl)-1H-imidazol-4-yl)methanone] has an IC50 (WM-164; WM164, 48 h, Table 13, 48 h, read-out: IC50 ± SEM WM164 (converted)) of 43 nM and an IC50 [1] of 43 nM.

With O=C(c1ccc(F)cc1)c1cn(S(=O)(=O)c2ccccc2)c(-c2ccc(Cl)cc2)n1 [11fb, (2-(4-chlorophenyl)-1-(phenylsulfonyl)-1H-imidazol-4-yl)(4-fluorophenyl)methanone] the IC50 (MDA-MB-435/LCCMDR1; Homo sapiens, Table 14A, multidrug-resistant cell line, n = 3, read-out: IC50 ± SEM MDA-MB-435/LCC6MDR1) was 35 ± 3 nM, the resistance index (MDA-MB-435/LCCMDR1; IC50 on MDA-MB-435/LCC6MDR1 divided by IC50 on MDA-MB-435) was 0.7 and the resistance index (MDA-MB-435/LCCMDR1; MDA-MB-435/LCCMDR1 versus MDA-MB-435) was 0.7. For the same compound, the IC50 [1] was 72 nM.

For CCc1[nH]c(C(=O)c2cc(OC)c(OC)c(OC)c2)nc1-c1ccccc1 [70k, (5-ethyl-4-phenyl-1H-imidazol-2-yl)(3,4,5-trimethoxyphenyl)methanone], the IC50 (DU 145; [15]) was 5.08 µM, the IC50 (PC-3; [16]) was 3650 nM and the IC50 (LNCaP; [10]) was 2030 nM. The IC50 (PPC-1; [17]) was 2080 nM.

COc1cc(C(=O)c2csc(Nc3ccc(F)cc3)n2)cc(OC)c1OC.Cl [5Hc, (2-(p-fluorophenylamino)thiazol-4-yl)(3,4,5-trimethoxyphenyl)methanone hydrochloride salt] gave an IC50 (DU 145; Table 6, read-out: IC50 ± SEM DU 145) of 0.07 µM, an IC50 (PC-3; Table 6, read-out: IC50 ± SEM PC-3) of 53 nM and an IC50 (LNCaP; Table 6, read-out: IC50 ± SEM LNCaP) of 53 nM. The IC50 (PPC-1; Table 6, read-out: IC50 ± SEM PPC-1) was 43 nM, the “CL (systemic clearance)” value [3] was 13 ± 2 mL/min/kg and the “Vss (volume of distribution following intravenous dosing)” value [3] was 1.4 ± 0.2 L/kg. The “F (percent oral bioavailability), rat” value [3] was 21%.

Work on COc1cc(C(=O)c2nc(-c3ccccc3)c(C)[nH]2)cc(OC)c1OC [70j, (5-methyl-4-phenyl-1H-imidazol-2-yl)(3,4,5-trimethoxyphenyl)methanone] yielded an IC50 (DU 145; [15]) of 2 µM, an IC50 (PC-3; [16]) of 1620 nM and an IC50 (LNCaP; [10]) of 938 nM. It also gave an IC50 (PPC-1; [17]) of 860 nM.

In the case of O=C(c1ccc(C(F)(F)F)cc1)c1nc(-c2ccc(C(F)(F)F)cc2)c[nH]1 [70u, (4-(trifluoromethyl)phenyl)(4-(4-(trifluoromethyl)phenyl)-1H-imidazol-2-yl)methanone], the IC50 (DU 145; [11]) is reported as over 50 µM, the IC50 (PC-3; [12]) is reported as over 50000 nM and the IC50 (LNCaP; [13]) is reported as over 50000 nM. It also gave an IC50 (PPC-1; [14]) of over 50000 nM.

For COc1cc(-c2c[nH]c(C(=O)c3ccc(Br)cc3)n2)cc(OC)c1OC [70z, 4-bromophenyl(4-(3,4,5-trimethoxyphenyl)-1H-imidazol-2-yl)methanone], the IC50 (DU 145; [11]) was 0.43 µM, the IC50 (PC-3; [12]) was 371 nM and the IC50 (LNCaP; [13]) was 131 nM. The IC50 (PPC-1; [14]) was 107 nM.

Compound Cc1ccc(C(=O)c2nc(-c3ccc(C)cc3)c[nH]2)cc1 [70v, p-tolyl(4-p-tolyl-1H-imidazol-2-yl)methanone] has an IC50 (DU 145; [11]) of 6.54 µM, an IC50 (PC-3; [12]) of 5160 nM and an IC50 (LNCaP; [13]) of 3760 nM. The IC50 (PPC-1; [14]) was 2400 nM.

In the case of COc1cc(C(=O)c2csc(-c3ccc(CN)cc3)n2)cc(OC)c1OC [2r, (2-(4-(Aminomethyl)phenyl)thiazol-4-yl)(3,4,5-trimethoxyphenyl)methanone hydrochloride], the “increase of solubility (fold)” value ([9]; HCl salt versus 1h) is reported as “over 35 fold”.

For COc1cc(C(=O)c2csc(-c3ccccc3)n2)cc(OC)c1O [compound 34], the IC50 (WM-164; WM164, Table 6A, read-out: IC50 WM164) was over 10000 nM and the IC50 (LNCaP; Table 6A, read-out: IC50 LNCaP) was over 10000 nM.

Compound COc1cc(C(=O)c2csc(-c3ccc4[nH]ccc4c3)n2)cc(OC)c1OC [66a] has an aqueous solubility [9] of 3.8 µg/mL (≈ 9.63 µM).

Work on COc1cc(C(=O)c2csc(Nc3ccc(F)cc3)n2)cc(OC)c1OC [5c, (2-(p-fluorophenylamino)thiazol-4-yl)(3,4,5-trimethoxyphenyl)methanone] yielded an aqueous solubility [9] of 19 µg/mL (≈ 48.9 µM).
